Data published in PMC9394284, “Discovery of Novel Dual Adenosine A2A and A1 Receptor Antagonists with 1H-Pyrazolo[3,4-d]pyrimidin-6-amine Core Scaffold as Anti-Parkinson’s Disease Agents” (Pharmaceuticals, 2022).

What was measured:
[1] = target: T1, hA1 receptor (Homo sapiens, UniProt P30542); experiment: radioligand binding to human A1 receptors, CHO-K1 membranes, [3H]DPCPX; conditions: average of duplicate experiments
T1 sequence (P30542 1-326): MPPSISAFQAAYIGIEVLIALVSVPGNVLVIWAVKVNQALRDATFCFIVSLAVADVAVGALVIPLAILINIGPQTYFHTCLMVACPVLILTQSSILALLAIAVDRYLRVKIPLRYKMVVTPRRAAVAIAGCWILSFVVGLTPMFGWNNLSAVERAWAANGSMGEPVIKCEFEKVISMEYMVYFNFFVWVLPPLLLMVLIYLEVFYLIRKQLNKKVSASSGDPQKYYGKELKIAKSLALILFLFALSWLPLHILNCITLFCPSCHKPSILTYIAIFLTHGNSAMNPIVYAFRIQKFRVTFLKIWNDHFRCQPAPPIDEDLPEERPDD
Description: The radioligand-binding assays for adenosine receptors were performed at Eurofins Discovery Services (Panlabs, Taiwan). Briefly, stock solutions of the compounds were prepared in DMSO and further diluted with the incubation buffer to the desired concentration. Final DMSO concentrations in the assay were 1.0%. For adenosine A1 screening, a 10 μg aliquots of membrane preparations from human recombinant CHO-K1 cells stably expressing A1 receptors (CHO-K1-hA1AR clone3, EPDST, R200510) were incubated with 1 nM [^3H]DPCPX in incubation buffer (20 mM HEPES, pH 7.4, 10 mM MgCl2, 100 mM NaCl 1.40 nM) for 90 min at 25 °C. Nonspecific binding was estimated in the presence of 100 μM R(-)-PIA. Membranes were filtered and washed 3 times and the filters were counted to determine specifically bound [^3H]DPCPX. Chemical compounds were screened at 10 μM. For A2A screening, membrane preparations from human recombinant HEK-293 cells stably expressing A2A receptors (PerkinElmer, RBHA2AM) were incubated with 0.05 μM [^3H]CGS-21680 in incubation buffer (50 mM Tris-HCl, pH 7.4, 10 mM MgCl2, 1 mM EDTA, 2 U/mL Adenosine Deaminase) for 90 min at 25 °C. Nonspecific binding was estimated in the presence of 50.0 μM NECA. Membranes were filtered and washed 3 times and the filters were counted to determine [^3H]CGS-21680 specifically bound. For A2B screening, membrane preparations from human recombinant HEK-293 cells stably expressing A2B receptors (PerkinElmer, ES-013-M) were incubated with 1.6 nM [^3H]MRS1754 in incubation buffer (50 mM Tris-HCl, pH 6.5, 5 mM MgCl2, 1 mM EDTA, 0.01 % Bacitracin) for 90 min at 25 °C. Nonspecific binding was estimated in the presence of 100 μM NECA. Membranes were filtered and washed 3 times and the filters were counted to determine [^3H]MRS1754 specifically bound. For A3 screening, membrane preparations from human recombinant CHO-K1 cells stably expressing A3 receptors (PerkinElmer, ES-012-M) were incubated with 0.5 nM [^125I]AB-MECA in incubation buffer (25 mM HEPES, pH 7.4, 5 mM MgCl2, 1 mM CaCl2, 0.1 % BSA) for 60 min at 25 °C. Nonspecific binding was estimated in the presence of 1.0 μM IB-MECA.
IC50 values were determined by a nonlinear, least-squares regression analysis using MathIQ^TM (ID Business Solutions Ltd., Guildford, UK). Where inhibition constants (Ki) were presented, the Ki values were calculated using Cheng and Prusoff equation [18] using the observed IC50 of the compound, the concentration of radioligand employed in the assay, and the historical values for the KD of the ligand (obtained experimentally at Eurofins Panlabs, Inc.). The Hill coefficient (nH), which defines the slope of the competitive binding curve, was calculated using MathIQ^TM.

[2] = target: T2, hA2A receptors (Homo sapiens, UniProt P29274); experiment: radioligand binding to human A2A receptors, HEK-293 membranes; conditions: average of duplicate experiments
T2 construct: purchased PerkinElmer RBHA2AM
T2 sequence (P29274 whole entry): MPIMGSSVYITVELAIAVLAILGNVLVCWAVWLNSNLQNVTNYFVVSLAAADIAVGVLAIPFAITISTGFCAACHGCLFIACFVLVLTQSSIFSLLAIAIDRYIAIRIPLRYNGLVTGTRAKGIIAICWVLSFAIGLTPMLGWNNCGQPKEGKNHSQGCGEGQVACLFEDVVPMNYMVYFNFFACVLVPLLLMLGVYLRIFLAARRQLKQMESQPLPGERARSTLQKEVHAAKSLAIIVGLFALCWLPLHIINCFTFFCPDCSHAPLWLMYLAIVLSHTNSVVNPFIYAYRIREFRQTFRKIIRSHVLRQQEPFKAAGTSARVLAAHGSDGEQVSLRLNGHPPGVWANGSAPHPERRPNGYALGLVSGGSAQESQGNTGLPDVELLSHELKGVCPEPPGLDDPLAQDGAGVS
Description: The binding affinities of synthesized compounds to human A2A receptors (hA2AR) were measured by assessing competitive binding of ligands to radioligand […] using membrane preparations of human recombinant HEK-293 cells expressing human A2A receptors.
The radioligand-binding assays for adenosine receptors were performed at Eurofins Discovery Services (Panlabs, Taiwan). Briefly, stock solutions of the compounds were prepared in DMSO and further diluted with the incubation buffer to the desired concentration. Final DMSO concentrations in the assay were 1.0%. […] Nonspecific binding was estimated in the presence of 100 μM R(-)-PIA. Membranes were filtered and washed 3 times and the filters were counted to determine specifically bound [^3H]DPCPX. Chemical compounds were screened at 10 μM. […] Nonspecific binding was estimated in the presence of 50.0 μM NECA. […] Nonspecific binding was estimated in the presence of 100 μM NECA. Membranes were filtered and washed 3 times and the filters were counted to determine [^3H]MRS1754 specifically bound. […] Nonspecific binding was estimated in the presence of 1.0 μM IB-MECA.
IC50 values were determined by a nonlinear, least-squares regression analysis using MathIQ^TM (ID Business Solutions Ltd., Guildford, UK). […] The Hill coefficient (nH), which defines the slope of the competitive binding curve, was calculated using MathIQ^TM.

[3] = solubility (qualitative); assay type: physicochemical; conditions: CF3 next to aniline, difficulties in forming salt
[4] = metabolic stability in cryopreserved dog hepatocytes
Description: (§1) Metabolic stability of 11o was determined in cryopreserved hepatocytes from mice, rats, dogs, monkeys and human according to the SOPs of Frontage Laboratories Inc. Briefly, cryopreserved hepatocytes for pre-clinical animals and for human (BioIVT, Westbury, NY, USA) were thawed in a 37 °C water bath with gentle shaking until ice had almost melted. The suspensions were immediately transferred to a centrifuge tube (50 mL) containing pre-warmed thawing media at 37 °C with gentle handshaking to prevent the cells from settling. Cell suspensions were centrifuged at 50× g and 4 °C for 5 min. The supernatant was discarded and the pellets were resuspended in prewarmed incubation media (5 mL) at 37 °C. The percentage of viable cells in the suspension was determined by Trypan blue staining method to ensure viability of ≥70 %. […] The samples were centrifuged and aliquots of the supernatant were analyzed for parent compounds by LC/MS/MS using suitable multiple reaction monitoring (MRM) transitions. […] The disappearance of 11o and midazolam was monitored by LC/MS/MS (MRM) analysis of the hepatocyte extracts at each time point. The peak area ratio of the analyte to internal standard was obtained for each sample and the rate of disappearance of 11o was assessed by comparing the peak area ratios at various time points to the peak area ratio obtained at t = 0. The t1/2 is obtained (using the linear portion of semi-log plot of the area ratio vs. time) and the CLint values determined using well-stirred model.

[5] = metabolic stability in cryopreserved rat hepatocytes
Description: as §1

[6] = metabolic stability in cryopreserved human hepatocytes
Description: as §1

[7] = metabolic stability in cryopreserved mouse hepatocytes
Description: as §1

[8] = metabolic stability in cryopreserved monkey hepatocytes
Description: as §1

Row | SMILES | Ki [1] [nM] | Ki [2] [nM] | solubility (in words) [3] | half-life at 0.2 μM ([4]; beagle, dog, hepatocytes) [min] | Intrinsic Clearance ([4]; dog hepatocytes, midazolam 0.2 μM) [mL/min/10^6 Cells] | half-life at 0.2 μM ([5]; Sprague Dawley, rat, hepatocytes) [min] | Intrinsic Clearance ([5]; rat hepatocytes, midazolam 0.2 μM) [mL/min/10^6 Cells] | Intrinsic Clearance ([6]; human hepatocytes, midazolam 0.2 μM) [mL/min/10^6 Cells] | half-life at 0.2 μM ([6]; human, hepatocytes) [min] | half-life at 0.2 μM ([7]; CD-1, mouse, hepatocytes) [min] | Intrinsic Clearance ([7]; mouse hepatocytes, midazolam 0.2 μM) [mL/min/10^6 Cells] | Intrinsic Clearance ([8]; monkey hepatocytes, midazolam 0.2 μM) [mL/min/10^6 Cells] | half-life at 0.2 μM ([8]; monkey, hepatocytes) [min]
1 | N#Cc1cccc(-c2nc(N)nc3c2cnn3Cc2ccc(N)c(C(F)(F)F)c2)c1 [11w, 3-(6-Amino-1-(4-amino-3-(trifluoromethyl)benzyl)-1H-pyrazolo[3,4-d]pyrimidin-4-yl)benzonitrile] | 49 | 1.94 | greatly reduced solubility |  |  |  |  |  |  |  |  |  | 
2 | Cc1ncc2n1-c1ccc(Cl)cc1C(c1ccccc1F)=NC2 [Midazolam, reference compound] |  |  |  | 32.8 | 0.0211 | 21.9 | 0.0317 | 0.0101 | 68.3 | 49.9 | 0.0139 | 0.0192 | 36
